# Data from ChEMBL document CHEMBL1201862, “PubChem BioAssay data set” (2004).
# The source made the active and inactive calls.
# What was measured:
# [1] = human group III sPLA2 inhibitors, dose response, biochemical, QFRET, IC50 (AID 743457);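 further: green fluorescence rise as the enzyme cleaves BODIPY PC-A2 in liposomes; potency for inhibition of the enzyme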
# [2] = Artemis endonuclease inhibitor potency, dose response, biochemical, fluorescence intensity (AID 720701); type: functional;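 further: Artemis endonuclease enzyme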
# [3] = target: T1, Trace amine-associated receptor 1 (Homo sapiens, UniProt Q96RJ0); experiment: Counterscreen for agonists of the human trace amine associated receptor 1 (hTAAR1): Fluorescence-based cell-based high throughput dose response assay to identify hTAAR1 agonist that also desensitize TAAR1 receptor response.; type: functional
# T1 sequence (Q96RJ0 whole entry): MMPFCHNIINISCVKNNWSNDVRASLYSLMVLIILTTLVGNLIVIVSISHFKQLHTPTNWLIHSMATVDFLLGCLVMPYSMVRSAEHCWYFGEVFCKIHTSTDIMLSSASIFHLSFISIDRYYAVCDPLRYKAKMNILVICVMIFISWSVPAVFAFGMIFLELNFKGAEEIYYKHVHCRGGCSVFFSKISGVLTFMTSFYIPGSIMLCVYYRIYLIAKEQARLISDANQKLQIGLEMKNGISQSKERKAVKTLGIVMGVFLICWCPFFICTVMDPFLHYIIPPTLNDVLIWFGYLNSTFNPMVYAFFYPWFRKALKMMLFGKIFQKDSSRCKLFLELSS
# [4] = target: T1, Trace amine-associated receptor 1; experiment: Fluorescence-based cell-based high throughput dose response assay to identify agonists of the human trace amine associated receptor 1 (TAAR1).; type: functional
# cells [5] = type: functional, cell-based
# cells [6] = type: functional, cell-based; remark: listed apart in the source
# [7] = THP-1 cell cytotoxicity, dose response, cytotoxicity control for Vif-APOBEC3G degradation inhibitor project, THP-1 cells (AID 1117359); type: functional; conditions: Human immunodeficiency virus 1, THP-1
# Protein RecA = target: T2, Protein RecA (Mycobacterium tuberculosis, UniProt P9WHJ3); experiment: Fluorescence Cell-Free Homogeneous Dose Retest to Identify Inhibitors of RecA-Intein Splicing Activity. [Related pubchem assays (depositor defined):AID2097, AID2223, AID489010, AID492950]; type: functional
# T2 sequence (P9WHJ3 whole entry): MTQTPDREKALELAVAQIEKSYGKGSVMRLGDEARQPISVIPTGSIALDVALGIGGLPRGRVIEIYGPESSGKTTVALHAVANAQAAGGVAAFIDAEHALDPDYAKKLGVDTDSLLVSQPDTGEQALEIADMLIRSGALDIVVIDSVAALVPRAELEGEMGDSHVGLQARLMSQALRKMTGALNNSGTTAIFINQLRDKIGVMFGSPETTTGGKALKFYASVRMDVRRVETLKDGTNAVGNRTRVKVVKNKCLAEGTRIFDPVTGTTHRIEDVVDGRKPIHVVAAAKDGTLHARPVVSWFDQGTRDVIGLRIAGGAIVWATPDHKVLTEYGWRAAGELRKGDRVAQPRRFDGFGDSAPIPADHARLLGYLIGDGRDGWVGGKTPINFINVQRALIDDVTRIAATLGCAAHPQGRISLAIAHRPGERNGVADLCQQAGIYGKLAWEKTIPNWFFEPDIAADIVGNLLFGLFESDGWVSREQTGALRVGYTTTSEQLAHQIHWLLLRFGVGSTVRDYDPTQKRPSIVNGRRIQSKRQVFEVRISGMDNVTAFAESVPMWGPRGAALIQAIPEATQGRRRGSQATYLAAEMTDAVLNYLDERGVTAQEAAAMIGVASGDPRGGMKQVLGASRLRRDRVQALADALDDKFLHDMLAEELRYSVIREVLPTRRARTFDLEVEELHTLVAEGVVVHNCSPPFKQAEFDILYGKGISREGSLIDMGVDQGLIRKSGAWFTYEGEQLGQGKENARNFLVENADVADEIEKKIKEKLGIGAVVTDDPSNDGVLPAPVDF
# Large T antigen = Large T antigen (Simian virus 40, UniProt P03070); type: functional, Betapolyomavirus macacae;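 further: Confirmatory-stage PubChem screen for compounds that inhibit SV40 T antigen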
# [8] = target: T3, Replicative DNA helicase DnaB (Mycobacterium tuberculosis, UniProt P9WMR3); experiment: DnaB intein splicing inhibitors, dose response, biochemical, cell-free fluorescence (AID 449749); type: functional
# T3 sequence (P9WMR3 whole entry): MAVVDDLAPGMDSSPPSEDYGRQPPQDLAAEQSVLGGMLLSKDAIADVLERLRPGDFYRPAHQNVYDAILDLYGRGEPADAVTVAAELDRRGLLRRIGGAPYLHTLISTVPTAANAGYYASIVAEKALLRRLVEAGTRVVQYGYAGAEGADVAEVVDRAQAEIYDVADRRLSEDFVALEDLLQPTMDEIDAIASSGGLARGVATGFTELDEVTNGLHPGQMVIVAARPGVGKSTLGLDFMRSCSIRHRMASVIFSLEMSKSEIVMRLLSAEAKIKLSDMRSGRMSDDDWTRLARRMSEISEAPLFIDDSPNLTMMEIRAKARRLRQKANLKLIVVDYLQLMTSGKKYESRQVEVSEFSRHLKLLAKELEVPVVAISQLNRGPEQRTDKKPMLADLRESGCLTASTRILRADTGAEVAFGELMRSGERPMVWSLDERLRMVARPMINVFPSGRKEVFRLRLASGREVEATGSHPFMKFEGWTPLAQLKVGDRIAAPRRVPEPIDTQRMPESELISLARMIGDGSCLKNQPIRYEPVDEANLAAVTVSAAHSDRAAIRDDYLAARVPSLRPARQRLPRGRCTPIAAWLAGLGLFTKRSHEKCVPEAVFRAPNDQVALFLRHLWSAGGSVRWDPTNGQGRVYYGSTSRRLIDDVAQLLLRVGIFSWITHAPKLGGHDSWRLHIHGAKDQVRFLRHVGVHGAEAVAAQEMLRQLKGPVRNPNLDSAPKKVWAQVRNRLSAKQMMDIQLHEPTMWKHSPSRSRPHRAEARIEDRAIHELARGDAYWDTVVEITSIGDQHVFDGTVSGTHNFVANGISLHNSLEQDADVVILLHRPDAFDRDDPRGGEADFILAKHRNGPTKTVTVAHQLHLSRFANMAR
# BJ [9] = experiment: cells; type: functional, cell-based; conditions: Homo sapiens
# BJ [10] = experiment: cytotoxicity toward BJ-TERT fibroblasts, dose response, cell-based, RAS-independent, luminescence (AID 1933); type: functional; conditions: Homo sapiens
# [11] = cytotoxicity toward DRD oncogenic fibroblasts, dose response, cell-based, non-viral oncogenic, luminescence (AID 1934); type: functional; conditions: Homo sapiens
# BJ [12] = experiment: cytotoxicity toward BJ-TERT-LT-ST fibroblasts, dose response, cell-based, RAS-independent, luminescence (AID 1935); type: functional; conditions: Homo sapiens;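 further: BJ fibroblasts immortalized with TERT plus LT and ST oncogenes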
# [13] = HEK293T cytotoxicity, dose response, cytotoxicity control for miR-122 modulator project, cell-based, inhibitor set, cherry-pick, set 2 (AID 720697); type: functional
# [14] = P. falciparum ATP4 D1247Y mutant growth inhibitors, dose response, NITD609-resistant line, SYBR Green, dry powder (AID 1159571); type: functional, cell-based;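 further: parasites synchronized at ring stage by sorbitol before testing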
# [15] = P. falciparum 3D7-ScDHODH growth inhibitors, dose response, SYBR Green, dry powder samples (AID 1159570); type: functional, cell-based;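 further: parasite growth measured after 72 hours of compound exposure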
# [16] = P. falciparum Dd2 growth inhibitors, dose response, SYBR Green, dry powder samples (AID 1159566); type: functional, cell-based;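 further: potency for growth inhibition with lower SYBR green DNA signal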
# [17] = P. falciparum Dd2 growth inhibitors, dose response, SYBR Green, cherry-picked samples (AID 1159567); type: functional, cell-based
# [18] = tested on: Streptococcus sp. 'group A'; experiment: growth inhibition of control SK(-) GAS strain, dose response, counter-screen for streptokinase expression inhibitor project, luminescence, kanamycin, BacTiterGlo, confirmation (AID 1900); type: functional, organism-based
# Streptococcus = experiment: Group A Streptococcus viability loss, dose response, counter-screen for streptokinase expression inhibitor project, luminescence, BacTiterGlo (AID 1915); type: functional, organism-based;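 further: potency for reduction of bacterial viability or growth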
# Paired box protein Pax-8 = Paired box protein Pax-8 (Homo sapiens, UniProt Q06710); experiment: inhibitors of PAX8-driven TPO luciferase reporter, dose response, RMG-I cells, cherry-pick (AID 687027); type: functional, cell-based;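 further: luciferase reporter driven by Pax8 target thyroperoxidase promoter measured by SteadyGlo luminescence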
# [19] = cytotoxicity in OVCAR8 ovarian cancer cells, dose response, PAX8 project, cell-based, plate reader, dry powder samples (AID 743197); type: functional; conditions: OVCAR-8
# [20] = IGROV1 ovarian cancer cell cytotoxicity, dose response, PAX8 inhibitor project, plate reader, dry powder samples (AID 743043); type: functional, cell-based; conditions: IGROV-1
# [21] = NIH:OVCAR-3 ovarian cancer cell cytotoxicity, dose response, PAX8 inhibitor project, plate reader, dry powder samples (AID 743044); type: functional, cell-based
# Sequence of Large T antigen (P03070 whole entry): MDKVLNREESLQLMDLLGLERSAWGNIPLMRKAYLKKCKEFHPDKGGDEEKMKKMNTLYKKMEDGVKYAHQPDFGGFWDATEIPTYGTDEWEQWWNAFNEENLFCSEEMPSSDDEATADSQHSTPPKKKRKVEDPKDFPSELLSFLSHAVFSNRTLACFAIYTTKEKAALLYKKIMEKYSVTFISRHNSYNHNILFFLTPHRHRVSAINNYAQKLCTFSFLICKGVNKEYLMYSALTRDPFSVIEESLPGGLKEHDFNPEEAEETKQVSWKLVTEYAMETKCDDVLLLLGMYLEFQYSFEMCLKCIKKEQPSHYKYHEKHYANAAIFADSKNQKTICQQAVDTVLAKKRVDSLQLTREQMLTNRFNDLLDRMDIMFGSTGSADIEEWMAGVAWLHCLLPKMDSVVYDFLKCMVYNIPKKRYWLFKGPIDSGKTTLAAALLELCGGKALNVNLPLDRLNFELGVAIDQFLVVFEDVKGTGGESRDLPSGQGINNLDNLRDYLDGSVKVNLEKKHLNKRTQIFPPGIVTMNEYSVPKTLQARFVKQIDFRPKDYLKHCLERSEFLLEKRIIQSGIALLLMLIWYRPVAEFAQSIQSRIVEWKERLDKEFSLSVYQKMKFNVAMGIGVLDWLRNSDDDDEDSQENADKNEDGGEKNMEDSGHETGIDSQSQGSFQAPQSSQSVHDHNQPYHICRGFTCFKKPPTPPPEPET
# Sequence of Paired box protein Pax-8 (Q06710 whole entry): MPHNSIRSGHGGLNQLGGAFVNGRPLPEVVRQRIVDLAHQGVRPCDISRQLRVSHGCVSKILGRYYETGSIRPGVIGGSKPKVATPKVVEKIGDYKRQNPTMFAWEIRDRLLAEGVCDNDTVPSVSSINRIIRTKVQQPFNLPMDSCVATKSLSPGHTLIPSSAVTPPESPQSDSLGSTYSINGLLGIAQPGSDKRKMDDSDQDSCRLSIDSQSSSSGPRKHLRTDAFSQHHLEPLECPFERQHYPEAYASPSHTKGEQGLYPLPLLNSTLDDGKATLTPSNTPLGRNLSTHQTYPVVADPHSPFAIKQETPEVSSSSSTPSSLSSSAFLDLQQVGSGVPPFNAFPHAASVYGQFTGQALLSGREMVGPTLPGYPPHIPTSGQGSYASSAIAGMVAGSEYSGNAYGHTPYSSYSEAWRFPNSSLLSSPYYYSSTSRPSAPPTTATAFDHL
compound,measurement,setting,value
O=C(Cc1cccs1)NNC(=S)NCc1ccc(Cl)cc1,IC50,[1],> 122 µM (inactive)
CC(=O)N(/N=C1\Sc2ccccc2C1=O)c1ccccc1,IC50,[2],6.46 µM (active)
CCOC(=O)C(NC(C)=O)(N1CCc2ccccc2C1)C(F)(F)F (configuration not stated),IC50,[3],2.8 µM (active)
same,EC50,[4],0.0868 µM (active)
same,IC50,cells [5],> 29.9 µM (inactive)
same,EC50,cells [6],> 29.9 µM (inactive)
COc1ccc(Nc2ccc(OC)cc2)cc1,CC50,[7],21 µM (active)
same,EC50,Protein RecA,> 380 µM (inactive)
same,IC50,Large T antigen,26.2 µM (active)
same,AC50,[8],121 µM (active)
COc1cccc(-c2cn3nc4c(nc3n2)CCCC4)c1,EC50,BJ [9],21.6 µM (active)
same,EC50,BJ [10],16.2 µM (active)
same,IC50,[2],> 20 µM (inactive)
same,EC50,[11],12.9 µM (active)
same,EC50,BJ [12],> 150 µM (not active)
Oc1ccc2ccccc2c1/C=N/c1nc2c(s1)CCCC2,IC50,[2],> 20 µM (inactive)
CN1C(=O)c2cc(NC(=O)c3cccs3)ccc2OC[C@H]2O[C@@H](CC(=O)NCCN3CCCCC3)CC[C@@H]21,AC50,[13],4.24 µM (active)
CC1(C)CC(=O)C(/C=N\CCc2ccc(O)cc2)=C(O)C1,IC50,[3],8.81 µM (active)
same,EC50,[4],1.84 µM (active)
same,IC50,cells [5],> 29.9 µM (inactive)
same,EC50,cells [6],> 29.9 µM (inactive)
C[C@H]1CN([C@@H](C)CO)S(=O)(=O)c2ccc(-c3ccc(C#N)cc3)cc2O[C@H]1CN(C)CC1CC1,AC50,[14],3.08 µM (active)
same,AC50,[15],2.79 µM (active)
same,AC50,[16],1.76 µM (active)
same,AC50,[17],2.27 µM (active)
COc1cc(C(=O)NNC(=S)NC(=O)c2ccc3c(c2)OCO3)cc(OC)c1OC,EC50,[18],1.36 µM (active)
same,IC50,[1],> 122 µM (inactive)
same,EC50,Streptococcus,3.37 µM (active)
COc1cccc(-c2ccc3c(c2)[C@@H]2[C@@H](CCN2S(=O)(=O)c2ccccc2OC)[C@H](CO)N3C)c1,AC50,Paired box protein Pax-8,10.3 µM (active)
same,AC50,[19],27.8 µM (active)
same,AC50,[20],50.6 µM (active)
same,AC50,[21],18 µM (active)
O=C(NNC(=S)Nc1ccccc1)c1ccc2ncccc2c1,IC50,[1],> 122 µM (inactive)
COc1cccc(Nc2nc(NCCO)c3ccccc3n2)c1,IC50,[3],14 µM (inactive)
same,EC50,[4],4.4 µM (active)
same,IC50,cells [5],> 29.9 µM (inactive)
same,EC50,cells [6],> 29.9 µM (inactive)
